# Measurements reported in patent publication US10590422B2, “Anticancer therapeutic intervention” (PHYZAT BIOPHARMACEUTICALS, LDA., priority 2017, dated 2020).
# Assays:
# [1] = tested on: LAT1; assay: LAT1 activity: [^14C]-L-leucine uptake in fibrosarcoma HT-1080 cells after LAT1 gene silencing; assay type: cell-based, human; details: 5 nM siRNA, treatment 6 h, at 48 h, 0.4% Lipofectamine 2000, FIG. 8A
# Method: Cells were plated in 24-well plates (Sarstedt, Germany) and grown until confluence was reached. On the day of the experiment, cell culture medium was aspirated and cells were preincubated for 15 min in Hanks' medium (NaCl 140 mM, KCl 5 mM, MgSO4.7H2O 0.8 mM, K2HPO4 0.33 mM, KH2PO4 0.44 mM, MgCl2.6H2O 1 mM, CaCl2) 0.025 mM, Tris-HCl 9.75 mM, pH 7.4). Uptake was initiated by addition of Hanks' medium with 0.25 μM [^14C]-L-leucine in the absence and in the presence of 3 mM unlabeled L-leucine. During preincubation and incubation cells were continuously shaken and maintained at 37° C. Uptake was terminated after 1 min by rapid removal of uptake solution by means of a vacuum pump connected to a Pasteur pipette, followed by a rapid wash with Hanks' medium. Subsequently, cells were solubilized in 0.1% vol/vol Triton X-100 (dissolved in 5 mM Tris-HCl, pH 7.4), and radioactivity was measured by liquid scintillation counting.
# (§1) Cells were plated in 24-well (Sarstedt, Germany) or 6-well plates (Sarstedt, Germany) or 96-well plates with black walls clear bottom (BD Biosciences, USA) and incubated 24 h under normal growth conditions. siRNAs against LAT1 and transfection agent were diluted at desired concentrations and mixed according to transfection agent manufacturer's instructions. The mixture was incubated 20 min at RT for siRNA-complex formation, after which it was added to the cells and incubated at 37° C., 5% CO2. After the incubation period, serum and antibiotic was restored and cells were further incubated at normal conditions for the desired time points until evaluation of LAT1 activity or LAT1 expression (immunoblotting and RT-qPCR).
# [2] = tested on: LAT1 mRNA; assay: LAT1 gene expression (RT-qPCR) after LAT1 gene silencing in human colon cancer HTC-116 cells; assay type: cell-based; details: treatment 6 h
# Method: (§2) SK-HEP-1, T24, HT-1080 and HCT-116 cell lines were maintained in a humidified atmosphere of 5% CO2 at 37° C. SK-HEP-1 cells were grown in RPMI-1640 (Sigma, St. Louis, Mo.) supplemented with 20% fetal bovine serum (FBS) (Gibco, UK), 100 U/mL penicillin G, 0.25 μg/mL amphotericin B, 100 μg/mL streptomycin (Gibco, UK), 25 mM sodium bicarbonate (Merck, Germany) and 25 mM N-2-hydroxyethylpiperazine-N′-2-ethanosulfonic acid (HEPES) (Sigma, St. Louis, Mo.). T24 and HT-1080 cells were grown, respectively, in Dulbecco's Modified Eagle's Medium (DMEM)—high glucose (Sigma, St. Louis, Mo.) and DMEM—low glucose (Sigma, St. Louis, Mo.), supplemented with 10% FBS (Gibco, UK), 100 U/mL penicillin G, 0.25 μg/mL amphotericin B, 100 μg/mL streptomycin (Gibco, UK), 25 mM sodium bicarbonate (Merck, Germany) and 25 mM HEPES (Sigma, St. Louis, Mo.). HCT-116 cells were grown in McCoy's 5A (Sigma, St. Louis, Mo.) supplemented with 10% FBS (Gibco, UK), 100 U/mL penicillin G, 0.25 μg/mL amphotericin B, 100 μg/mL streptomycin (Gibco, UK), 25 mM sodium bicarbonate (Merck, Germany) and 25 mM HEPES (Sigma, St. Louis, Mo.). For all cell lines the medium was changed every 2 days, and cells reached confluence 3-4 days after initial seeding. For subculturing, cells were dissociated with 0.25% trypsin-ethylenediaminetetraacetic acid (EDTA) (Sigma, St. Louis, Mo.), split 1:15 or 1:20 and subcultured in a 21-cm^2 growth area (Sarstedt, Germany).
# (§3) Total RNA was isolated and purified using the SV Total RNA Isolation System (Promega, USA) according to manufacturer's instructions. RNA quality and concentration were verified in the NanoDrop ND1000 Spectrophotometer (Thermo Scientific, USA), and RNA integrity and genomic DNA contamination were evaluated by agarose gel electrophoresis. Total RNA (1 μg) was converted into cDNA using the Maxima Scientific First Strand cDNA Synthesis Kit for RT-qPCR (Thermo Scientific, USA), according to instructions. The following protocol was used: 1st step, 10 min at 25° C.; 2nd step, 15 min at 50° C.; 3rd step, 5 min at 85° C. cDNA was used for qPCR analysis using Maxima SYBR Green qPCR Master Mix (Thermo Scientific, USA) in the StepOnePlus instrument (Applied Biosystems, USA). QuantiTect Primer Assay for LAT1 and ASCT2 and for the endogenous control gene GAPDH (Quiagen, Germany) were used. The qPCR reaction was performed in 96-well PCR plates (Sarstedt, Germany) as follows: one cycle of 10 min at 95° C., followed by 40 PCR cycles at 95° C. 15 s and 60° C. 60 s. […] No template controls were always evaluated for each target gene. Quantification cycle (Cq) values were generated automatically by the StepOnePlus 2.3 Software and the ratio of the target gene was expressed in comparison to the endogenous control gene GAPDH.
# as §1
# [3] = tested on: ASCT2 mRNA; assay: ASCT2 gene expression (RT-qPCR) after ASCT2 gene silencing in human colon cancer HTC-116 cells; assay type: cell-based; details: treatment 6 h
# Method: as §2, §3
# as §1, with “ASCT2” for “LAT1”
Substance,[^14C]-L-leucine (0.25 μM) uptake at initial rate of uptake (1 min) [1],"LAT1 mRNA relative abundance ([2]; 5, 25 and 45 nM, concentration dependent, 0.5% Lipofectamine 2000, Lipofectamine RNAiMAX or Injectin, at 72 h, FIGS. 10A and 10B)","LAT1 mRNA relative abundance ([2]; 5 or 25 nM siRNA, at 24 h or 48 h, 0.5% Lipofectamine 2000, FIGS. 9A and 9C)","LAT1 mRNA relative abundance ([2]; 72 h, 0.17% Lipofectamine 2000 or 0.1% Injectin, FIG. 19A)","ASCT2 mRNA relative abundance ([3]; 5 or 25 nM siRNA, at 24 h or 48 h, 0.5% Lipofectamine 2000, FIGS. 9B and 9C)","ASCT2 mRNA relative abundance ([3]; 72 h, 0.17% Lipofectamine 2000 or 0.1% Injectin, FIG. 20A)"
58/387/388 (sense CUUCGCCACCUACCUGCUCAATT; antisense UUGAGCAGGUAGGUGGCGAAGTT; siRNA; sugars by position and backbone not given here; further chemistry not fully specified),decreased,decreased,decreased,significantly decreased,–,–
278/403/404 (sense UGCCACGGUCGCCUCUGAGAATT; antisense UUCUCAGAGGCGACCGUGGCATT; siRNA; sugars by position and backbone not given here; further chemistry not fully specified),–,–,–,–,decreased,significantly decreased
